Test system: human pancreatic ductal adenocarcinoma (PDAC) xenografts (Colo-357)
Assay: Survival of nude mice with orthotopically implanted human PDAC xenografts
Type: in vivo
Settings: orthotopic PDAC, female nu/nu mice, (I-a-ii) 10 mg/kg/dose s.c. BID five days a week, gemcitabine 100 mg/kg/dose i.p. twice per week, combination: both regimens; for mean survival time (days of dosing to death): vehicle 58, untreated 55 days
Protocol: The compound of formula (I-a-ii) was formulated at 3.44 mg/mil in a vehicle of 40% polyethylene glycol (PEG) 1000 (Spectrum, Los Angeles, Calif.), 10% povidone C30 (ISP, Boudbrook, N.J.), and 2% benzyl alcohol (Specturm, Los Angeles, Calif.) in sterile injectable water.
Gemcitabine HCl (Gemzar) was obtained from Eli Lilly and Co. (Indianapolis, Ind.) as a sterile, lyophilized powder formulated with mannitol and sodium acetate, and resuspended to a concentration of 1.0 mg/ml with 0.9% sodium chloride, pH 7.0. Solutions of gemcitabine were freshly prepared for each day of dosing and filter sterilized prior to administration.
Human pancreatic ductal adenocarcinoma (PDAC) xenografts were obtained from the left flanks of nude mice that had been injected with 2×10^6 Colo-357 human pancreatic carcinoma cells. Colo-357 human PDAC cells were obtained from the American Type Culture Collection (ATCC) and grown to subconfluency in Minimal Essential Medium supplemented with 10% fetal bovine serum and 1% penicillin/streptomycin. Cells were MAP and mycoplasma tested by a commercial laboratory (Bio Reliance Corp.) prior to use. Xenograft tumors were harvested and carefully sectioned into 2×2 mm^2 fragments in a laminar flow hood using sterile technique (PNAS 89:5645-49, 1992; Cancer Res. 55:4670-75, 1995). Netrotic areas of the tumors were removed and discarded. The 2×2 mm tumor tissue fragments were then placed in sterile, undiluted Matrigel and ice for 60 minutes prior to implantation. (Cancer Res. 55:4670-75, 1995).
At approximately 8 weeks of age female nu/nu mice were anesthetized with a mixture of ketamine/xylazine given by IM injection. Following establishment of satisfactory anesthesia, a left lateral laparotomy was performed using aseptic technique, and the spleen and pancreas exteriorized by gentle traction. Two of the 2×2 mm^2 tumor xenograft fragments prepared as described above were anchored to the posterior surface of the splenic portion of the pancreas of each mouse with a 6-0 Prolene suture (Cancer Res. 56:5713-19, 1996; J. Surg. Oncol. 40:261-265, 1989). The abdominal incision was closed with 6-0 Vicryl and the skin closed with skin staples. Mice were observed daily for any signs of infection of the incision line and, following removal of the skin staples, had abdominal palpation performed twice weekly. Establishment of the orthotopic phenotype with diffuse peritoneal spread was accomplished through three serial passes of tumor tissue.
Seven days following surgical implantation of serially passed PDAC tumor tissue, mice were randomized into five different treatment groups. Untreated mice (n=5) received no vehicle or drug treatments. […]

SMILES | survival relative to controls or monotherapy (Kaplan-Meier-Wilcoxon), in words | mean survival time (days of dosing to death) [days]
Nc1ccn([C@@H]2O[C@H](CO)[C@@H](O)C2(F)F)c(=O)n1 [gemcitabine, 2′,2′-difluorodeoxycytidine] | prolonged survival relative to the administration of controls | 97
C[C@@]12OC(C[C@@]1(O)CO)n1c3ccccc3c3c4c(c5c6ccccc6n2c5c31)CNC4=O [formula (I-a-ii)] | trend toward improved overall survival relative to administration of controls, but the trend was not significant | 63
